Assay results published in patent US11986471B2, “Compounds and methods of use” (Tango Therapeutics, Inc., priority 2018, dated 2024).
pIC50: −log10 of the molar value.

Key:
PRMT5 [1] = target: T1, PRMT5 (Homo sapiens, UniProt O14744); experiment: PRMT5 IC50 assay with no cofactor; type: biochemical
T1 construct: purchased Viva (custom protein)
Summary of the method: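 Results given as IC50 (μM), from which Ki follows by dividing by 1.5 in the SAM condition or by 13.5 in the MTA condition. The ratio of SAM Ki to MTA Ki indicates MTA-cooperative preference.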

PRMT5 [2] = target: T1, PRMT5; experiment: PRMT5 IC50 assay in the presence of SAM as cofactor; type: biochemical
Summary of the method: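 Human PRMT5 inhibition, IC50 in μM; cofactor varied (SAM / MTA / none).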

HAP1 MTAP-intact = experiment: SDMA in-cell western assay, HAP1 MTAP-intact cell line; type: cell-based; conditions: Homo sapiens
Summary of the method: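 HAP1 isogenic pair: endogenous MTAP vs MTAP-null. Readout SDMA by in-cell western; IC50 per line. Ratio ≥3 fold = MTAP-selective.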

HAP1 MTAP-deleted = experiment: SDMA in-cell western assay, HAP1 MTAP-deleted cell line; type: cell-based; conditions: for pIC50: Homo sapiens, HAP1 MTAP-deleted cell line; for MTAP Intact/Deleted Ratio: IC50 ratio HAP1 MTAP-intact / HAP1 MTAP-deleted
Summary of the method: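 IC50 from SDMA in-cell western; HAP1 line lacking MTAP (null), paired isogenically with MTAP-intact HAP1 expressing endogenous MTAP.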

PRMT5 [3] = target: T1, PRMT5; experiment: PRMT5 IC50 assay in the presence of MTA as cofactor; type: biochemical; conditions: for pIC50: PRMT5, MTA as cofactor
Summary of the method: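 MTA-dependent versus SAM-dependent inhibition of human PRMT5 was assessed by IC50; conversion factors of 13.5 and 1.5 gave the corresponding Ki.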

[4] = ratio between the Ki in the presence of SAM and the Ki in the presence of MTA
[5] = ratio between Ki in the presence of SAM and Ki in the presence of MTA

T1 sequence (O14744 whole entry): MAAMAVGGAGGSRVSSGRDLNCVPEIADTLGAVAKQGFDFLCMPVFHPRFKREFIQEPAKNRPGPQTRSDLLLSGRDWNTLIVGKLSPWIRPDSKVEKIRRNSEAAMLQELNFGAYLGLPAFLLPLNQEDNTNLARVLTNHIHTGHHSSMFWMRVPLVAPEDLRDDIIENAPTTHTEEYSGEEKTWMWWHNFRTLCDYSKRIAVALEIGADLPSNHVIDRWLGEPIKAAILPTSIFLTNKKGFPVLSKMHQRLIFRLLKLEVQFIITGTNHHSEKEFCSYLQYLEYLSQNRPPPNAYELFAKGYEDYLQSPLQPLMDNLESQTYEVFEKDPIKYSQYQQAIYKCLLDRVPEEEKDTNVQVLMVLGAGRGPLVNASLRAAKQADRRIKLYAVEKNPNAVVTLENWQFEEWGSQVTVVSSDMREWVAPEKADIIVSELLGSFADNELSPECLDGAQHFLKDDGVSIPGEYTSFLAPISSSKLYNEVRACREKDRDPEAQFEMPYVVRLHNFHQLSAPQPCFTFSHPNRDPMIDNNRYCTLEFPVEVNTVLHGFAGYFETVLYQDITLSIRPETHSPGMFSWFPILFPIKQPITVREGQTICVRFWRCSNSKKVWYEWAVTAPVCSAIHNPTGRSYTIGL
T1 sequence (Q9BQA1 whole entry partner): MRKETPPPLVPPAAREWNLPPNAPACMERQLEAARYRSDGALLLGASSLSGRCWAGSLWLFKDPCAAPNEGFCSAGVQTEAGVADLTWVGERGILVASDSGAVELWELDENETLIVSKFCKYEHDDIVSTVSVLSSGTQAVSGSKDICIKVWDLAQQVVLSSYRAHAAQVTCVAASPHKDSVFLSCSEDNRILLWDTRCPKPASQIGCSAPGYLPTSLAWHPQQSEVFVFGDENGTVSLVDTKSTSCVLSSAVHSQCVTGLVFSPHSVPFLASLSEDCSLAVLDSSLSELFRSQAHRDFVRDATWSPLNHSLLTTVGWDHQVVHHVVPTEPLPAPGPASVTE

| pIC50 (PRMT5 [1]) | pIC50 (PRMT5 [2]) | pIC50 (HAP1 MTAP-intact) | pIC50 (HAP1 MTAP-deleted) | pIC50 (PRMT5 [3]) | pIC50 (PRMT5 [1]; read-out: No Co-factor IC50) | SMILES | MTAP Intact/Deleted Ratio (HAP1 MTAP-deleted) | SAM/MTA Ratio (PRMT5 [3]; [4]) | SAM/MTA Ratio (PRMT5 [3]; [5]) |
| --- | --- | --- | --- | --- | --- | --- | --- | --- | --- |
| 5.30 to 6.30 | 6.30 to 7.30 | ≤ 5.00 | > 6.00 | 6.30 to 7.30 |  | Cc1c(OCc2cnco2)ccc2c1CCN(C[C@@H](O)CNC(=O)c1ccnc(NC3CCN(C(=O)CC(C)C)CC3)c1)C2 [Compound 447, (S)—N-(2-hydroxy-3-(5-methyl-6-(oxazol-5-ylmethoxy)-3N-dihydroisoquinolin-2(1H)-yl)propyl)-2-((1-(3-methylbutanoyl)piperidin-4-yl)amino)isonicotinamide] | A* (an IC50 ratio greater than or equal to 10 fold between the IC50 in the HAP1 MTAP-intact cell line and the HAP1 MTAP-deleted cell line) | A (a Ki ratio greater than or equal to 10 fold between the Ki in the presence of SAM and the Ki in the presence of MTA) |  |
| 5.30 to 6.30 | 6.30 to 7.30 | ≤ 5.00 | 5.00 to 6.00 | 6.30 to 7.30 |  | CC(C)(C)C(=O)N1CCC(Nc2cc(C(=O)NC[C@H](O)CN3CCc4c(ccc(OCc5cnco5)c4Cl)C3)ccn2)CC1 [Compound 432, (S)—N-(3-(5-chloro-6-(oxazol-5-ylmethoxy)-3,4-dihydroisoquinolin-2(1H)-yl)-2-hydroxypropyl)-2-((1-pivaloylpiperidin-4-yl)amino)isonicotinamide] | B* (an IC50 ratio greater than or equal to 3 fold but lower than 10 fold between the IC50 in the HAP1 MTAP-intact cell line and the HAP1 MTAP-deleted cell line) | A (a Ki ratio greater than or equal to 10 fold between the Ki in the presence of SAM and the Ki in the presence of MTA) |  |
| 5.30 to 6.30 | 6.30 to 7.30 | ≤ 5.00 | > 6.00 | 6.30 to 7.30 |  | O=C(NC[C@H](O)CN1CCc2c(ccc(OCc3cnco3)c2Cl)C1)c1cc(NC2CCC2)nc(N2CCN(C(=O)C3CC3)CC2)c1 [Compound 571, (S)—N-(3-(5-chloro-6-(oxazol-5-ylmethoxy)-3N-dihydroisoquinolin-2(1H)-yl)-2-hydroxypropyl)-2-(cyclobutylamino)-6-(4-(cyclopropanecarbonyl)piperazin-1-yl)isonicotinamide] | A* (an IC50 ratio greater than or equal to 10 fold between the IC50 in the HAP1 MTAP-intact cell line and the HAP1 MTAP-deleted cell line) | A (a Ki ratio greater than or equal to 10 fold between the Ki in the presence of SAM and the Ki in the presence of MTA) |  |
| 5.30 to 6.30 | 6.30 to 7.30 | > 6.00 | > 6.00 | 6.30 to 7.30 |  | Cc1ncoc1COc1ccc2c(c1)CCN(C[C@@H](O)CNC(=O)c1ccnc(NC3CC4(CC4)C3)c1)C2 [Compound 621, (S)—N-(2-hydroxy-3-(6-((4-methyloxazol-5-yl)methoxy)-3,4-dihydroisoquinolin-2(1H)-yl)propyl)-2-(spiro[2.3]hexan-5-ylamino)isonicotinamide] | B* (an IC50 ratio greater than or equal to 3 fold but lower than 10 fold between the IC50 in the HAP1 MTAP-intact cell line and the HAP1 MTAP-deleted cell line) | A (a Ki ratio greater than or equal to 10 fold between the Ki in the presence of SAM and the Ki in the presence of MTA) |  |
| 5.30 to 6.30 | 6.30 to 7.30 | > 6.00 | > 6.00 | 6.30 to 7.30 |  | Cc1ncoc1COc1ccc2c(c1)CCN(C[C@@H](O)CNC(=O)c1cc(NC3CCC3)ccn1)C2 [Compound 516, 4-(cyclobutylamino)-N-[(2S)-2-hydroxy-3-(6-[(4-methyl-1,3-oxazol-5-yl)methoxy]-1,2,3,4-tetrahydroisoquinolin-2-yl}propyl]pyridine-2-carboxamide] | C* (an IC50 ratio of less than 3 fold between the IC50 in the HAP1 MTAP-intact cell line and the HAP1 MTAP-deleted cell line) | A (a Ki ratio greater than or equal to 10 fold between the Ki in the presence of SAM and the Ki in the presence of MTA) |  |
|  | 5.30 to 6.30 | ≤ 5.00 | 5.00 to 6.00 | 6.30 to 7.30 | ≤ 5.30 | O=C(NC[C@H](O)CN1CCc2c(ccc(OCc3cnco3)c2Cl)C1)c1cc(NC2CCC2)nc(N2CCOCC2)c1 [Compound 288, (S)—N-(3-(5-chloro-6-(oxazol-5-ylmethoxy)-3N-dihydroisoquinolin-2(1H)-yl)-2-hydroxypropyl)-2-(cyclobutylamino)-6-morpholinoisonicotinamide] | C* (an IC50 ratio of less than 3 fold between the IC50 in the HAP1 MTAP-intact cell line and the HAP1 MTAP-deleted cell line) |  | A (a Ki ratio greater than or equal to 10 fold between the Ki in the presence of SAM and the Ki in the presence of MTA) |
|  | 6.30 to 7.30 | ≤ 5.00 | 5.00 to 6.00 | 6.30 to 7.30 | ≤ 5.30 | O=C(NC[C@H](O)CN1CCc2c(Cl)c(OCc3cnco3)cc(F)c2C1)c1ccnc(NC2CCC2)c1 [Compound 279, N-[(2S)-3-[5-chloro-8-fluoro-6-(oxazol-5-ylmethoxy)-3,4-dihydro-1H-isoquinolin-2-yl]-2-hydroxy-propyl]-2-(cyclobutylamino)pyridine-4-carboxamide] | C* (an IC50 ratio of less than 3 fold between the IC50 in the HAP1 MTAP-intact cell line and the HAP1 MTAP-deleted cell line) |  | A (a Ki ratio greater than or equal to 10 fold between the Ki in the presence of SAM and the Ki in the presence of MTA) |
|  | 6.30 to 7.30 | ≤ 5.00 | ≤ 5.00 | 6.30 to 7.30 | 5.30 to 6.30 | CC(=O)N1CCN(c2nc(NC3COC3)cc(C(=O)NC[C@H](O)CN3CCc4c(ccc(OCc5cnco5)c4Cl)C3)n2)CC1 [Compound 300, (S)-2-(4-acetylpiperazin-1-yl)-N-(3-(5-chloro-6-(oxazol-5-ylmethoxy)-3,4-dihydroisoquinolin-2(1H)-yl)-2-hydroxypropyl)-6-(oxetan-3-ylamino)pyrimidine-4-carboxamide] | C* (an IC50 ratio of less than 3 fold between the IC50 in the HAP1 MTAP-intact cell line and the HAP1 MTAP-deleted cell line) |  | A (a Ki ratio greater than or equal to 10 fold between the Ki in the presence of SAM and the Ki in the presence of MTA) |
| 5.30 to 6.30 | 6.30 to 7.30 | ≤ 5.00 | 5.00 to 6.00 | 6.30 to 7.30 |  | CC(C)C(=O)N1CCC(Nc2cc(C(=O)NC[C@H](O)CN3CCc4c(ccc(OCc5cnco5)c4Cl)C3)ccn2)CC1 [Compound 452] | B* (an IC50 ratio greater than or equal to 3 fold but lower than 10 fold between the IC50 in the HAP1 MTAP-intact cell line and the HAP1 MTAP-deleted cell line) | A (a Ki ratio greater than or equal to 10 fold between the Ki in the presence of SAM and the Ki in the presence of MTA) |  |
|  | 6.30 to 7.30 | > 6.00 | > 6.00 | 6.30 to 7.30 | 5.30 to 6.30 | COCCN(C)c1nc(NC2COC2)cc(C(=O)NC[C@H](O)CN2CCc3cc(OCc4cnco4)ccc3C2)n1 [Compound 295, (S)—N-(2-hydroxy-3-(6-(oxazol-5-ylmethoxy)-3N-dihydroisoquinolin-2(1H)-yl)propyl)-2-((2-methoxyethyl)(methyl)amino)-6-(oxetan-3-ylamino)pyrimidine-4-carboxamide] | C* (an IC50 ratio of less than 3 fold between the IC50 in the HAP1 MTAP-intact cell line and the HAP1 MTAP-deleted cell line) |  | A (a Ki ratio greater than or equal to 10 fold between the Ki in the presence of SAM and the Ki in the presence of MTA) |
| 6.30 to 7.30 | 6.30 to 7.30 | ≤ 5.00 | > 6.00 | 6.30 to 7.30 |  | COCCN(C)c1cc(C(=O)NC[C@H](O)CN2CCc3cc(OCc4ocnc4C)c(F)cc3C2)cc(NC2CCN(C(C)=O)CC2)n1 [Compound 612, 2-[(1-acetyl-4-piperidyl)amino]-N-[(2S)-3-[7-fluoro-6-[(4-methyloxazol-5-yl)methoxy]-3N-dihydro-1H-isoquinolin-2-yl]-2-hydroxy-propyl]-6-[2-methoxyethyl(methyl)amino]pyridine-4-carboxamide] | A* (an IC50 ratio greater than or equal to 10 fold between the IC50 in the HAP1 MTAP-intact cell line and the HAP1 MTAP-deleted cell line) | A (a Ki ratio greater than or equal to 10 fold between the Ki in the presence of SAM and the Ki in the presence of MTA) |  |
|  | 6.30 to 7.30 | > 6.00 | > 6.00 | 6.30 to 7.30 | 5.30 to 6.30 | Cc1ncoc1COc1ccc2c(c1)CCN(C[C@@H](O)CNC(=O)c1cc(NC3CCC3)nc(N3CCOCC3)c1)C2 [Compound 384, 2-(cyclobutylamino)-N-[(2S)-2-hydroxy-3-{6-[(4-methyl-1,3-oxazol-5-yl)methoxy]-1,2,3,4-tetrahydroisoquinolin-2-yl}propyl]-6-(morpholin-4-yl)pyridine-4-carboxamide] | B* (an IC50 ratio greater than or equal to 3 fold but lower than 10 fold between the IC50 in the HAP1 MTAP-intact cell line and the HAP1 MTAP-deleted cell line) |  | A (a Ki ratio greater than or equal to 10 fold between the Ki in the presence of SAM and the Ki in the presence of MTA) |
